# Measured values taken from patent US8586629B2, “Composition for the treatment of oxidative stress” (Probiox SA, priority 2008, dated 2013).
# Like-named read-outs stand apart in the source and are kept apart here.
# Experiments:
# oxidized LDL = assay: Clinical study: plasma oxidized LDL in women under Yasmin; assay type: in vivo; conditions: for number of responders (minimum of 35% decrease of oxLDL): T4 versus T0; for effect on LDL oxidation: general conclusion; for oxLDL at T4 compared to T0: plasma, within arm
# Excerpt: (§1) Subjects: 60 women were selected on the basis of the below-mentioned selection criteria and divided into 4 groups. Keeping a possible dropout in mind (in total 45 women completed the study), these groups were designed such, that by the end of the study; groups SOCO_A and SOCO_D would contain 15 subjects; and groups SOCO_B and SOCO_C would contain 10 subjects.
# (§2) Inclusion Criteria: • Age: between 18 and 35 years • Informed consent collected • Patients under oral contraception with Yasmin for at least three months
# (§3) Whereby one menstrual cycle is flanked by 2 vertical lines and, whereby: • SOCO_A) represents the intake of a combination of a Zinc supplement and a Quercetin supplement • SOCO_B) represents the intake of a Zinc supplement • SOCO_C) represents the intake of a Quercetin supplement • SOCO_D) represents the intake of a placebo supplement
# (§4) And whereby: • V1 represents a first visit between day −42 and day −14 • V2 represents a second visit between day −7 and −3 • V3 represents a third visit between day 23 and 27 • V4 represents a fourth visit between day 51 and 55 • V5 represents a fifth visit between day 113 and 117
# (§5) SOCO_A: Quercetin DC 500 mg • Zinc picolinate 20% (elementary 22.5 mg) 113 mg • Magnesium stearate 3 mg • 1 capsule per day during 112 days
# (§6) SOCO_B: Zinc picolinate 20% (elementary 22.5 mg) 113 mg • Dicalcium phosphate 125 mg • Cellulose microcrystals 375 mg • Magnesium stearate 3 mg • 1 capsule per day during 112 days
# (§7) SOCO_C: Quercetin DC 500 mg • Dicalcium phosphate 85 mg • Cellulose microcrystals 28 mg • Magnesium stearate 3 mg • 1 capsule per day during 112 days
# (§8) SOCO_D: Dicalcium phosphate 460 mg • Cellulose microcrystals 153 mg • Magnesium stearate 3 mg • 1 capsule per day during 112 days
# (§9) A blood sample (2-3 tubes of +/−5 ml) was collected during each visit. A maximum of 60 ml blood was required per subject for the whole study. Blood samples for haematological and biochemical tests were collected during V1 and V5, and blood samples for oxidative stress assessment were collected during V2, V3, V4 and V5.
# (§10) Plasma concentration of lipid peroxides, copper and zinc were determined in blood samples taken at V2, V3, V4 and V5. Plasma concentration of oxidized LDL was determined in blood samples taken at V2 and V5. The expression of 200 genes involved in oxidative stress were determined via quantitative measurements of mRNA expression by microarray, in blood samples taken at V2 and V5.
# LDL [1] = conditions: in vitro; cited from earlier work
# [2] = supplementation; cited from earlier work
# [3] = 6 week supplementation; cited from earlier work
# [4] = Clinical study: plasma lipid peroxides, copper and zinc in women under Yasmin; assay type: in vivo
# Excerpt: as §1, §2, §3, §4, §5, §6, §7, §8, §9, §10
# [5] = hypobaric hypoxia studies and COPD study; cited from earlier work
# LDL [6] = conditions: zinc supplementation; cited from earlier work
# [7] = zinc supplementation; cited from earlier work
# [8] = zinc supplemented group; cited from earlier work
compound,measurement,setting,value
"O=c1c(O)c(-c2ccc(O)c(O)c2)oc2cc(O)cc(O)c12 [quercetin alone, Quercetin]",number of responders (minimum of 35% decrease of oxLDL),oxidized LDL,0%
same,effect on LDL oxidation,oxidized LDL,weak effect
same,oxLDL at T4 compared to T0,oxidized LDL,weak significant decrease
O=c1c(O)c(-c2ccc(O)c(O)c2)oc2cc(O)cc(O)c12 [quercetin],inhibition of oxidative damage to LDL,LDL [1],most effective inhibitor
same,protection from oxidative stress induced damage,[2],does not exert protection
C[C@@H]1O[C@@H](OC[C@H]2O[C@@H](Oc3c(-c4ccc(O)c(O)c4)oc4cc(O)cc(O)c4c3=O)[C@H](O)[C@@H](O)[C@@H]2O)[C@H](O)[C@H](O)[C@H]1O [rutin],levels of three plasma flavonoids,[3],significantly elevated
Zinc picolinate [Zinc alone],number of responders (minimum of 35% decrease of oxLDL),oxidized LDL,0%
same,effect on LDL oxidation,oxidized LDL,No effect
same,oxLDL at T4 compared to T0,oxidized LDL,no significant changes
same,mean relative change in Cu/Zn between T4 and T0 (mean Cu/Zn decrease),[4]; compared to placebo,significant
same,mean relative change in Zn between T4 and T0 (mean zinc increase),[4]; compared to placebo,significant
same,mean relative change in Cu/Zn between T4 and T0 (mean Cu/Zn decrease),[4]; compared to quercetin alone,significant
same,mean relative change in Zn between T4 and T0 (mean zinc increase),[4]; compared to quercetin alone,significant
[Zn] [zinc],oxidative stress markers,[5],no effects
same,Cu-induced LDL oxidation,LDL [6],no effects
same,oxidative stress markers,[7],did not alter
same,incidence of infection,[8],significantly lower
same,lipid peroxides,[8],significant diminution
